Reference: PMC7294525 (Cell Research, 2020)
Like-named read-outs stand apart in the source and are kept apart here. Peptide text beside a SMILES is read from it. * marks the point of attachment. Cbz = O=C(OCc1ccccc1)*

Experiments:
EV-A71 2A protease = biological target: T1, EV-A71 2A protease (Human enterovirus 71, UniProt Q66478); assay: biochemical
T1 sequence (Q66478 863-1012 limits assumed): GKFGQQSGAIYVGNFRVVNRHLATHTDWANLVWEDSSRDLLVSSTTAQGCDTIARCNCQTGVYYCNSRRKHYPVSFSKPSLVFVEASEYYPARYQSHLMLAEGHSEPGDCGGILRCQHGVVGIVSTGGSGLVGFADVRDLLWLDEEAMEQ

EV-A71 3C protease = EV-A71 3C protease (Human enterovirus 71, UniProt Q66478); assay: biochemical
Sequence of EV-A71 3C protease (Q66478 1549-1731): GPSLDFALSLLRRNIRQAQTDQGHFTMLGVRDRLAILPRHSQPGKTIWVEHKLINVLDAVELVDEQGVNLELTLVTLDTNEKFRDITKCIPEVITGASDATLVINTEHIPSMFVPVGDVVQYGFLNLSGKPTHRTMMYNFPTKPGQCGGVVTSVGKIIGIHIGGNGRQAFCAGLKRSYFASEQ

SARS-CoV 3CL^pro (M^pro) = details: read-out: IC50 against SARS-CoV 3CL^pro (M^pro); cited from earlier work
SARS-CoV-2 M^pro = SARS-CoV-2 M^pro (Severe acute respiratory syndrome coronavirus 2, UniProt P0DTD1); assay type: binding
[1] = test system: influenza virus A/California/07/2009 (H1N1); assay: Influenza A virus plaque reduction assay; assay type: cell-based; details: read-out: A/California/07/2009 (H1N1) antiviral activity (EC50)
[2] = biological target: SARS-CoV-2 main protease (M^pro) (Severe acute respiratory syndrome coronavirus 2, UniProt P0DTD1); assay: biochemical; details: for inhibition at 20 µM: read-out: inhibition against M^pro
[3] = 8 µM protein, 4 mM DTT, ligand 12.5 µM (62: 25 µM), up to two ligands per dimer

Q: With `CCOC(=O)/C=C/[C@H](C[C@@H]1CCNC1=O)NC(=O)[C@@H](CC(=O)[C@@H](NC(=O)c1cc(C)on1)C(C)C)Cc1ccc(F)cc1` [compound 65, rupintrivir] as the molecule, how does the “activity against EV-A71 2A protease” value (EV-A71 2A protease) read?
A: The value was “inactive”.

Q: And the “activity against EV-A71 3C protease” value (EV-A71 3C protease)?
A: Its value is “potent inhibition”.

Q: What about the IC50 (SARS-CoV 3CL^pro (M^pro)) of the same molecule?
A: Its IC50 is greater than 100 µM.

Q: Which “binding stoichiometry by native MS” value (SARS-CoV-2 M^pro; [3]) does the source give for calpain inhibitor XII [compound 62] here?
A: Its value is “one drug per protomer”.

Q: And the EC50 ([1]; plaque assay)?
A: The EC50 was greater than 20 µM.

Q: With calpain inhibitor II [compound 61] as the molecule, how does the “binding stoichiometry by native MS” value (SARS-CoV-2 M^pro; [3]) read?
A: Its value is “one drug per protomer”.

Q: What about the EC50 ([1]; plaque assay) of the same molecule?
A: Its EC50 is greater than 20 µM.

Q: What does the source list for `CC(C)(C)NC(=O)N[C@H](C(=O)N1C[C@H]2[C@@H]([C@H]1C(=O)NC(CC1CCC1)C(=O)C(N)=O)C2(C)C)C(C)(C)C` (stereo partly shown) [compound 28, boceprevir]?
A: inhibition at 20 µM [2]: > 60%; IC50 (EV-A71 2A protease): > 20 µM; IC50 (EV-A71 3C protease): > 20 µM; binding stoichiometry by native MS (SARS-CoV-2 M^pro): one drug per protomer; EC50 [1]: > 20 µM

Q: What does the source list for `CCCC[C@H](NC(=O)[C@@H]1[C@@H]2[C@H](CN1C(=O)[C@@H](NC(=O)NC1(CS(=O)(=O)C(C)(C)C)CCCCC1)C(C)(C)C)C2(C)C)C(=O)C(=O)NC1CC1` [compound 29, narlaprevir]?
A: inhibition at 20 µM [2]: > 60%; IC50 (EV-A71 2A protease): > 20 µM; IC50 (EV-A71 3C protease): > 20 µM

Q: Which inhibition at 20 µM [2] does the source give for `COc1ccc2c(O[C@@H]3C[C@H]4C(=O)N[C@]5(C(=O)NS(=O)(=O)C6CC6)C[C@H]5/C=C\CCCCN(C)C(=O)[C@@H]4C3)cc(-c3nc(C(C)C)cs3)nc2c1C` [compound 24, simeprevir] here?
A: The inhibition at 20 µM was greater than 60%.

Q: For `CN(C)C(=O)COC(=O)Cc1ccc(OC(=O)c2ccc(NC(=N)N)cc2)cc1` [compound 39, camostat], which IC50 [2] is on record?
A: The IC50 was greater than 20 µM.

Q: With `Cc1cccc(C)c1OCC(=O)N[C@@H](Cc1ccccc1)[C@@H](O)C[C@H](Cc1ccccc1)NC(=O)[C@H](C(C)C)N1CCCNC1=O` [compound 10, lopinavir] as the molecule, how does the IC50 [2] read?
A: Its IC50 is greater than 20 µM.

Q: Which “activity against EV-A71 2A protease” value (EV-A71 2A protease) does the source give for GC-376 [compound 64] here?
A: The value was “inactive”.

Q: What about the “activity against EV-A71 3C protease” value (EV-A71 3C protease) of the same molecule?
A: The value was “potent inhibition”.

Q: What about the EC50 ([1]; plaque assay) of the same molecule?
A: The EC50 was greater than 20 µM.

Q: Which IC50 [2] does the source give for `CC(C)[C@H](NC(=O)OCc1ccccc1)C(=O)N[C@H](C=O)Cc1ccccc1` [compound 57, calpain inhibitor III] (Cbz-Val-Phe-aldehyde) here?
A: Its IC50 is greater than 20 µM.

Q: With `CC(C)C[C@@H](C=O)NC(=O)[C@H](CC(C)C)NC(=O)[C@H](CC(C)C)NC(=O)OCc1ccccc1` [compound 43, MG-132] (Cbz-Leu-Leu-Leu-aldehyde) as the molecule, how does the inhibition at 20 µM [2] read?
A: The inhibition at 20 µM was greater than 60%.

Q: What about the IC50 (EV-A71 2A protease) of the same molecule?
A: Its IC50 is greater than 20 µM.

Q: What about the IC50 (EV-A71 3C protease) of the same molecule?
A: The IC50 was greater than 20 µM.
